Measurements: paper PMC4823785, “A Tricholoma matsutake Peptide with Angiotensin Converting Enzyme Inhibitory and Antioxidative Activities and Antihypertensive Effects in Spontaneously Hypertensive Rats” (Scientific Reports, 2016)
Like-named read-outs stand apart in the source and are kept apart here. Where no end group is shown, it is not given here.

What was measured:
[1] = tested on: spontaneously hypertensive rats; assay: Antihypertensive action in spontaneously hypertensive rats (SBP, tail-cuff); settings: SHRs, oral, 100 mg/kg BW, at 2 h
Method: All experiments were performed in accordance with the Regulations of Experimental Animal Administration issued by the State Committee of Science and Technology of the People’s Republic of China and also with the approval of the Animal Experimentation Ethics Committee of The Chinese University of Hong Kong which had been procured prior to the animal experiments. SHRs with systolic blood pressure (SBP) higher than 180 mmHg were randomly divided into six groups after acclimation for 1 week. During the acclimatization period prior to the test, the blood pressures of the rats were measured four times weekly. Each group containing four rats. […] The group treated with crude water extract of T. matsutake received the extract at two different concentrations: 200 mg/kg body weight and 400 mg/kg body weight. SBP was measured thrice at each of the following time points: 0, 0.5, 2, 4, 6 and 8 h after drug/sample administration, using a tail-cuff method with a programmable BP-100A electro-sphygmomanometer (Chengdu Taimeng Software Co., Ltd., Chengdu, China).

ACE [2] = settings: cited from earlier work
ACE [3] = target: T1, ACE (Oryctolagus cuniculus, UniProt P12822); assay: Assay of ACE inhibitory activity (spectrophotometric, HHL substrate); type: biochemical, rabbit; settings: chemically synthesized peptides; means ± S.D. of three determinations
T1 construct: ACE was prepared using fresh rabbit lungs according to the protocol reported by Hayakari et al; from tissue; host or cells: fresh rabbit lungs (supernatant of homogenate)
T1 sequence (P12822 34-1310): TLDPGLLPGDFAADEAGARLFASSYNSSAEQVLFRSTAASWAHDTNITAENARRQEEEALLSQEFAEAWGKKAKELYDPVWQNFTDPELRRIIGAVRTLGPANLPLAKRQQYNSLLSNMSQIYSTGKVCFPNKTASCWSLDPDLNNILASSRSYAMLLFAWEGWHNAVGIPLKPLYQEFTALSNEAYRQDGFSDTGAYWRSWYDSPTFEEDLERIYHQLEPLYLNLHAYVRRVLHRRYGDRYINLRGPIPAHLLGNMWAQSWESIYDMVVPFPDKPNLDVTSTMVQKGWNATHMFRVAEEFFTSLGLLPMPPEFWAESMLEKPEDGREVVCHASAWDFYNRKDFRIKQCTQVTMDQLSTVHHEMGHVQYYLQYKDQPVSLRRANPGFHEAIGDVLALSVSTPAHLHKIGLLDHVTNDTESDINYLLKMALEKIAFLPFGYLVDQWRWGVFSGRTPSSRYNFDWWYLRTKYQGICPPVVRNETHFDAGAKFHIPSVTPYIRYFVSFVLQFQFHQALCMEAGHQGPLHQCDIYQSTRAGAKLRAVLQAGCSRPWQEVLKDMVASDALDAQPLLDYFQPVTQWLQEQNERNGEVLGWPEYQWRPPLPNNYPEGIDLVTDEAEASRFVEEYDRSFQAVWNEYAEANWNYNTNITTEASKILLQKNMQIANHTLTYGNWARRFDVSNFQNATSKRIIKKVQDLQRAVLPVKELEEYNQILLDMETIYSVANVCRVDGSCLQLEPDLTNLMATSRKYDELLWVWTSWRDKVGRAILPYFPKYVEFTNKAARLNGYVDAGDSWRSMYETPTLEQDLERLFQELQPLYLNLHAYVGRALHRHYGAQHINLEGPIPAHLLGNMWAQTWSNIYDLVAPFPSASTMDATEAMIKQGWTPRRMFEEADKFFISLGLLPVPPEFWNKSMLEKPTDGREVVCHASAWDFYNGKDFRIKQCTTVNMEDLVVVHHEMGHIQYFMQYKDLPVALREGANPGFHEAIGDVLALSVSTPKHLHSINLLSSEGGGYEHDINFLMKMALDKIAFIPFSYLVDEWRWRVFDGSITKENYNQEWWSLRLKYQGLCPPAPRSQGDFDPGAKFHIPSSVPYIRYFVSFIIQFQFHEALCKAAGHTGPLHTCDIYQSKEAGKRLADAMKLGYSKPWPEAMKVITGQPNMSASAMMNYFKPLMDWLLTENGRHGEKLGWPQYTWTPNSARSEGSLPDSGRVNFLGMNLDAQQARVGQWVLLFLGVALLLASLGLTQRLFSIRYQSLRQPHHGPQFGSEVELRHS
Method: ACE was prepared using fresh rabbit lungs according to the protocol reported by Hayakari et al.[35] with some modifications. After washing with ice-cold 0.15 M NaCl, the rabbit lungs without connective tissues were cut up to small pieces and homogenized in 10 volumes of ice-old 0.1 M sodium borate buffer (pH 8.3) containing 0.25 M sucrose and 0.1 mM PMSF. The homogenate was centrifuged at 9,000 rpm for 40 min at 4 °C after dialysis at 4 °C overnight in 0.1 M sodium borate buffer (pH 8.3). The resulting supernatant was centrifuged at 9,000 rpm for 40 min at 4 °C again. The ACE activity in the supernatant was determined and the supernatant was aliquoted and then stored at −20 °C for further experiments.
The ACE inhibitory activity was assayed by using a spectrophotometric method following the protocol described by Cushman[36] with modifications. Briefly, an aliquot (20 μL) of the sample was mixed with 20 μL ACE and 150 μL 5 mM HHL in 0.1 M borate buffer (pH 8.3) containing 0.3 M NaCl. The reaction mixture was incubated at 37 °C for 30 min, and then the reaction was terminated by adding 500 μL 1 M HCl. The hippuric acid formed was extracted with 1.2 mL ethyl acetate and centrifuged at 4,000 rpm for 10 min. Then 800 μL of the upper organic phase was heat-evaporated at 95 °C for 35 min to remove ethyl acetate. The dried residue was dissolved in 800 μL distilled water and vortex mixed, and the absorbance was measured spectrophotometrically at 228 nm to estimate ACE inhibitory activity. ACE-inhibitory activity was calculated by using the equation 1: […]
where A was the absorbance of the solution containing ACE and inhibitor, B was the absorbance of solution containing ACE and inhibitor but terminated in advance, C was the absorbance of the solution containing ACE without inhibitor, and D was the absorbance of the solution containing ACE without inhibitor but terminated in advance. The concentration of the inhibitor required to inhibit 50% of the ACE activity under the above assay conditions was defined as IC50.

[4] = mushroom species printed in the row: Tricholoma matsutake, ref not given
[5] = peptide from Pleurotus cystidiosus
[6] = peptide from Tricholoma giganteum
[7] = peptide from Hypsizygus marmoreus

Which “maximum decrease in SBP” value [1] does the source give for `C[C@H](CS)C(=O)N1CCC[C@H]1C(=O)O` [captopril] here?
Its value is 38 mm Hg.

What does the source list for AHEPVK?
IC50 (ACE [2]; [4]): 63000 nM; Mode of inhibitory of ACE (ACE [2]; [4]): Competitive; IC50 (ACE [2]; [5]): 62800 nM; Mode of inhibitory of ACE (ACE [2]; [5]): Competitive

For GPSMR, which IC50 (ACE [2]; [5]) is on record?
The IC50 was 278000 nM.

And the “Mode of inhibitory of ACE” value (ACE [2]; [5])?
The value was “Competitive”.

Which IC50 (ACE [2]; peptide from Pholiota adiposa) does the source give for GQGGP here?
Its IC50 is 100 nM.

What does the source list for GQP?
IC50 (ACE [2]; [6]): 130 nM; Mode of inhibitory of ACE (ACE [2]; [6]): Competitive

With IISKIK [IISKIK] as the compound, how does the IC50 (ACE [3]) read?
Its IC50 is 1190 ± 260 nM.

For ILSKLK [ILSKLK], which IC50 (ACE [3]) is on record?
The IC50 was 4020 ± 310 nM.

Which IC50 (ACE [3]) does the source give for LIDKVVK [LIDKVVK] here?
The IC50 was 620 ± 420 nM.

Which IC50 (ACE [3]) does the source give for LLVTLKK [LLVTLKK] here?
Its IC50 is 950 ± 120 nM.

Which IC50 (ACE [2]; [7]) does the source give for LSMGSASLSP here?
The IC50 was 330 nM.

What about the “Mode of inhibitory of ACE” value (ACE [2]; [7]) of the same compound?
The value was “Non-competitive”.

For PSSNK, which IC50 (ACE [2]; peptide from Agaricus bisporus) is on record?
The IC50 was 129000 nM.

What about the “Mode of inhibitory of ACE” value (ACE [2]; peptide from Agaricus bisporus) of the same compound?
Its value is “Non- competitive”.

Which IC50 (ACE [2]; peptide from Agaricus bisporus) does the source give for RIGLF here?
The IC50 was 116000 nM.

What about the “Mode of inhibitory of ACE” value (ACE [2]; peptide from Agaricus bisporus) of the same compound?
The value was “Competitive”.

Which results are given for RLPSEFDLSAFLRA?
IC50 (ACE [2]; peptide from P. cornucopiae): 280 nM; Mode of inhibitory of ACE (ACE [2]; peptide from P. cornucopiae): Competitive

With RLSGQTIEVTSEYLFRH as the compound, how does the IC50 (ACE [2]; peptide from P. cornucopiae) read?
The IC50 was 560 nM.

And the “Mode of inhibitory of ACE” value (ACE [2]; peptide from P. cornucopiae)?
Its value is “Non-competitive”.

Which results are given for VIQKYP?
IC50 (ACE [2]; peptide from Grifola frondosa): 120 nM; Mode of inhibitory of ACE (ACE [2]; peptide from Grifola frondosa): Competitive

With WALKGYK [TMP, WALKGYK] as the compound, how does the IC50 (ACE [3]) read?
The IC50 was 400 ± 290 nM.
